Test results published in patent US10329304B2, “Compounds and methods for inhibition of hedgehog signaling and phosphodiesterase” (Vanderbilt University, priority 2014, dated 2019).
Where two headings read alike, the source gives them in different places. Each block holds one compound with its values, some of them ahead of it.

Experiments:
[1] = biological target: T1, PDE4D2 (Homo sapiens, UniProt Q08499); assay: In vitro PDE assay; type: biochemical; conditions: Table 9A
T1 construct: purchased BPS Biosciences (San Diego, Calif.)
Description: (§1) In vitro PDE profiling and dose-response assays were performed by BPS Biosciences (San Diego, Calif.). Kinetic Mechanism of inhibition studies were conducted by Millipore (St. Louis, Mo.). In brief, the PDE assay measures fluorescent polarization of FAM-AMP as FAM-cAMP is converted to FAM-AMP by PDE), the binding agent.
(§2) A series of dilutions of the test compound were prepared with 10% DMSO in assay buffer and 5 μl of the dilution was added to a 50 μl reaction so that the final concentration of DMSO is 1% in all of reactions. All of the PDE enzymatic reactions were conducted in duplicate at room temperature for 60 minutes in a 50 μl mixture containing PDE assay buffer (10 mM Tris-HCl, pH7.4, 10 mM MaCl2, 0.05% Tween 20), 100 nM FAM-cAMP, a PDE enzyme and a test compound.
(§3) After the enzymatic reaction, 100 μl of a binding solution (1:100 dilution of the binding agent, which contains the nano beads that recognize FAM-AMP, with the binding agent diluent) was added to each reaction and the reaction was performed at room temperature for 60 minutes. Fluorescence intensity was measured at an excitation of 485 nm and an emission of 528 nm using a Tecan Infinite M1000 microplate reader. Assays done by Millipore were conducted similarly with changes noted below: […]

[2] = biological target: T2, PDE4D3 (Homo sapiens, UniProt Q08499); assay: In vitro PDE assay; type: biochemical; conditions: Table 9A
T2 construct: purchased BPS Biosciences (San Diego, Calif.); kinetic studies by Millipore (St. Louis, Mo.)
Description: as §1, §2, §3

[3] = system: Gli1 mRNA; assay: Hh % Inh.: SAG-induced Gli1 expression in C3H10T½ cells (qPCR); type: cell-based; conditions: Mus musculus, C3H 10T1/2, SAG-induced (100 nM), 24 hours
Description: Compounds are dosed from 10 mM DMSO stock solutions, and mRNA is isolated after 24 hours of compound treatment. mRNA is reverse transcribed to produce cDNA which is quantified by quantitative polymerase chain reaction (qPCR) in triplicate and levels are normalized to GAPDH levels. Data is presented as percent inhibition compared to positive control (SAG).

[4] = system: Hedgehog signaling (TM3-Gli-Luc); assay: TM3-Gli-Luc luciferase reporter assay stimulated with 20 nM SAG; type: cell-based
Outline: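 Luciferase read-out divided by CellTiter-Glo viability, minus DMSO/no-SAG baseline, expressed relative to 20 nM SAG alone. Cells exposed to compound with SAG for 48 h at 37 °C in 2.5% FBS DMEM/F12 on gelatin. EC50 ±SEM from at least two separate-day runs.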

[5] = Lipophilic efficiency (LipE = pEC50 − cLogP) and cLogP
Description: Therefore, we prioritized phenotypic analog evaluation in the Gli-responsive luciferase reporter line TM3-Gli-Luc stimulated with 20 nM Smo agonist (SAG) while concurrently monitoring non-specific cellular toxicity. Additionally, lipophilic efficiency (LipE), a concurrent readout of a compound's potency (pEC50) and lipophilicity (cLogP) derived by subtracting the latter from the former, was utilized to optimize solubility properties (Table 12B), allowing for straightforward tracking of compounds with improvements in both parameters.

[6] = biological target: PDE4D (Homo sapiens, UniProt Q08499); assay: PDE4 inhibition assay (PDE4D IC50); type: biochemical
Description: as §1, §2
After the enzymatic reaction, 100 μl of a binding solution (1:100 dilution of the binding agent, which contains the nano beads that recognize FAM-AMP, with the binding agent diluent) was added to each reaction and the reaction was performed at room temperature for 60 minutes. Fluorescence intensity was measured at an excitation of 485 nm and an emission of 528 nm using a Tecan Infinite M1000 microplate reader. Assays done by Millipore were conducted similarly with changes noted below:
Hedgehog signaling inhibition and PDE4 inhibition of various compounds disclosed herein was assayed as described herein above.

[7] = system: Hedgehog signaling (Gli-Luc reporter); assay: Hh Gli-Luciferase reporter assay in Shh-Light2 cells; type: cell-based, mouse; conditions: Mus musculus, Shh Light2; Table 8; read-out: Hh Inhibition Assay (EC50)
Description: For Hh signaling assays, Shh-Light2 cells stably transfected with Gli-Luciferase reporter construct were used along with Shh-conditioned media, as previously described^7. Alternatively, 3 μM purmorphamine or 20 nM Smoothened agonist (SAG) (Santa Cruz Biotechnology, Santa Cruz, Calif.) was used to induce Hh signaling. Reporter cells were seeded in 96-well plates and incubated overnight with the various concentrations of eggmanone and Shh-conditioned media. To assess the effects of overexpression of Gli-2, PDE4D3 and DN-PDE4D3 on Hh signaling, mammalian expression vectors containing these constructs were transfected into Shh-Light2 cells in 96-well plates using Fugene6 (Roche), according to manufacturer's instructions. The transfected or Shh-stimulated cells were incubated overnight with the various concentrations of compound. The cells were then lysed, and cell extracts were subjected to Steady-Glo luciferase assay (Promega) according to manufacturer's instructions. The results were normalized to cell titer, as determined using Cell Titer-Glo luminescence assay (Promega).

[8] = Calculated as pEC50 - cLogP, Molinspiration Cheminformatics
[9] = 20 nM SAG, mean ± standard error of the mean, read-out: TM3-Gli-Luc EC50
[10] = Table 8, read-out: PDE4 Inhibition Assay (IC50)

T1 sequence (Q08499 303-809): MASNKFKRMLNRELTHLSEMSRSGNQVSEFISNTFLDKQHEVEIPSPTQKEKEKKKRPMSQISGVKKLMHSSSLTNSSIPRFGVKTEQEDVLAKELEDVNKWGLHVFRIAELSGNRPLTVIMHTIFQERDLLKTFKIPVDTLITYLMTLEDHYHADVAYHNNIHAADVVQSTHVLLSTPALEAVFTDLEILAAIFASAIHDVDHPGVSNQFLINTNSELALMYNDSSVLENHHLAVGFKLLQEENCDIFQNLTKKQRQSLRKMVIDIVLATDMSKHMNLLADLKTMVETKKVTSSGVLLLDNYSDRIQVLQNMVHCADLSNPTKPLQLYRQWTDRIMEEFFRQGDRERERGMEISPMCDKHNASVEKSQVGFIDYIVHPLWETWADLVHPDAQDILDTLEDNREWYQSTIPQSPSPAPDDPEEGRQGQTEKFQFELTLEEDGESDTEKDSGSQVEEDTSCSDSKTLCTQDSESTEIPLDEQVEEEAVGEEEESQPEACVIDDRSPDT
T2 sequence (Q08499 1-673 isoform Q08499-2): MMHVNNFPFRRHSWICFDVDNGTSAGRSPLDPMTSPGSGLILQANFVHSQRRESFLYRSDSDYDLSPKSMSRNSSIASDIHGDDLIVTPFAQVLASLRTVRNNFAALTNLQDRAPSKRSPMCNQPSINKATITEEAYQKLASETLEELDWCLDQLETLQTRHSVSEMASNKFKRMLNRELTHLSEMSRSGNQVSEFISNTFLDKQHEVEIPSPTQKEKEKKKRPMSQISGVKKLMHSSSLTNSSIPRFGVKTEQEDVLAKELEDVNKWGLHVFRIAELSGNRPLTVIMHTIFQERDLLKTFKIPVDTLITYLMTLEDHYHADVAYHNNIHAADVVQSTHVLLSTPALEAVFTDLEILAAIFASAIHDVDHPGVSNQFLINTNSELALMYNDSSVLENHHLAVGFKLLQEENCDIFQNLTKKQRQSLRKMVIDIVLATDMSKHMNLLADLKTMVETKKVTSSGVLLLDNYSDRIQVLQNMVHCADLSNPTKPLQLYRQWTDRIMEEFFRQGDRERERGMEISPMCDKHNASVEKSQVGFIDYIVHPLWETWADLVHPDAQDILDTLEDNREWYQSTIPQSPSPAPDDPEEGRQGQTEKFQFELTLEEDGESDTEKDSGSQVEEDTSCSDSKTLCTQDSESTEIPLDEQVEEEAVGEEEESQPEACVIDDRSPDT

SMILES: C=C(C)Cn1c(SCC(=O)N2CCOCC2)nc2sc3c(c2c1=O)CCCC3 [JEH-3-079]
- IC50 [1]: 3.2 µM
- IC50 [2]: 4.1 µM
- inhibition at 1 µM ([3]; 1 pM [sic], read-out: C3H10T1/2 qPCR, Gh1 mRNA % Inh., 1 pM): 25.1%
- inhibition at 10 µM ([3]; 10 pM [sic], read-out: C3H10T1/2 qPCR, Gh1 mRNA % Inh., 10 pM): 50.8%
- EC50 ([4]; Table 9A, read-out: TM3 G8 Luciferase EC 50): 18200 nM

SMILES: C=C(C)Cn1c(SCC(=O)c2cccs2)nc2sc3c(c2c1=O)CCCC3 [Formula 3]
- LipE [5, 8]: 0.73
- LipE ([5]; pEC50 - cLogP, Table 14): 0.73
- EC50 [4, 9]: 1340 ± 2 nM
- EC50 ([4]; TM3-Gli-Luc reporter line stimulated with 20 nM SAG, mean ± SEM, Table 14, read-out: TM3-Gli-Luc EC50): 1340 ± 2 nM
- IC50 ([6]; mean ± SEM, normalized to DMSO, read-out: PDE4D IC50): 380 ± 20 nM

SMILES: C=CCn1c(SCC(=O)N2CCCC[C@H]2C)nc2sc3c(c2c1=O)CCCC3 [Formula 1KMR]
- IC50 [1]: 7.6 µM
- IC50 [2]: 11 µM

SMILES: CS(=O)(=O)c1ccc(C(=O)Nc2ccc(Cl)c(-c3ccccn3)c2)c(Cl)c1 [Vismodegib, reference compound]
- LipE [5, 8]: 4.33
- Hh inhibitory activity / potency in words ([4]; 20 nM SAG): displayed expected potency
- Hh inhibitory activity / potency in words ([4]; 20 nM SAG, listed as 1): low-nanomolar
- EC50 [4, 9]: 13 ± 4 nM

Further lines, with some results ahead:

- IC50 [1]: 1.2 µM
- IC50 [2]: 1.7 µM
SMILES: C=C(C)Cn1c(SCC(=O)N2CCCC[C@H]2C)nc2sc3c(c2c1=O)CCCC3 [Formula 1ANQ]
- TM3 G8 Luciferase % Inh., 0.5 pM ([4]; 0.5 pM as printed): 17.4%

- IC50 [1]: > 100 µM
- IC50 [2]: > 100 µM
SMILES: C=CCn1c(SCC(=O)N2Cc3ccccc3C2)nc2sc3c(c2c1=O)CCCC3 [Formula 1KYW]

- LipE ([5]; calculated as pEC50 - cLogP (Molinspiration Cheminformatics), Table 13): 2.46
- Hh inhibitory activity / potency in words ([4]; 20 nM SAG): potency improvements over EGM1
- EC50 ([4]; TM3-Gli-Luc reporter line stimulated with 20 nM SAG, mean ± SEM, Table 13, read-out: TM3-Gli-Luc EC50): 1160 ± 390 nM
SMILES: O=C(CSc1nccc(=O)n1C1CC1)c1ccccc1 [Formula 14c]

- EC50 [7]: 2.5 µM
- IC50 [6, 10]: 1200 nM
SMILES: C=C(C)Cn1c(SCC(=O)N2CCCC[C@H]2C)nc2sc3c(c2c1=O)CCCC3 [Formula (5)]

- EC50 [7]: 7.5 µM
- IC50 [6, 10]: 6400 nM
SMILES: C=C(C)Cn1c(SCC(=O)c2nccs2)nc2sc3c(c2c1=O)CCCC3 [Formula (9)]
